Reference: US12153049B2, “BCR-ABL variants” (Quest Diagnostics Investments LLC, priority 2008, dated 2024)
“And” between values parts separate entries of the source, which are not always exact repeats. Identical values can stand only once. “Also recorded” adds a separate entry of the source. Counter-ions that a name gives are not always drawn. Like-named read-outs stand apart in the source and are kept apart here.

What was measured:
[1] = system: K562 CML cells (empty vector); test: MTT cell proliferation assay, K562 cells with empty vector; type: cell-based, human; settings: for IC50: Empty vector pCMV/GFP, drug 48 h, read-out: IC50 (median-effect dose, MTT)
Procedure: (§1) The effect of the drugs on cell proliferation was measured by MTT assay (FIG. 18A, right panel; mean±S.D; n=3). Dose response to cell death curves of K562 cells exposed to drugs were generated with the CalcuSyn® software package (Biosoft, Ferguson, MO) for each of at least three experiments.

[2] = system: tyrosine kinase (TK) activity in K562 cells (empty vector); test: Universal Tyrosine Kinase Assay on cell extract, K562 empty vector; type: cell-based, human; settings: relative to no-drug control, imatinib 1.2 μM, nilotinib 5 nM, dasatinib 5 nM, MK 0457 2 μM, homoharringtonine X μM
Procedure: (§2) K562 cells were cotransfected with increasing amounts of plasmid encoding pMIG/35 INS bcr-abl and either 100 ng of pMIG/BCR-ABL1p210 or the same amount of control vector (empty vector plasmid). […] Rabbit polyclonal IgG anti-Lyn, anti-Aurora A, and anti-Aurora B were obtained from Santa Cruz Biotechnology, (Santa Cruz, CA); rabbit polyclonal IgG anti-p-Src, anti-p-StatS, and anti-p-Crkl were obtained from Cell Signaling (Danvers, MA). Goat anti-rabbit PE (Santa Cruz Biotechnology) was used as the secondary antibody. LYN, p-CRKL, p-SRC, p-STATS, and Aurora A and B status were monitored. All experiments were repeated at least three times. Asterisk indicates p<0.05 relative to Control (empty vector).
(§3) Tyrosine kinase assay was performed using the Universal Tyrosine Kinase Assay Kit (GenWay Biotech, San Diego, CA) according to the manufacturer's instruction. The universal protein tyrosine kinase substrate peptide, Poly (Glu-Tyr) (4:1, 20-50 kDa) was pre-coated onto 96-well microtiter plates. Serial dilutions of prepared cell extract and 5-point standards (with known tyrosine kinase activities) were added to the plate in triplicates along with an ATP-containing kinase buffer. After incubation at 37° C. for 30 min to allow phosphorylation of tyrosine residues, the sample solution was removed and the wells washed with Washing buffer (PBS with 0.05% Tween-20) and blocked with Blocking solution. Anti-phosphotyrosine (PY20)-horse radish peroxidase (HRP) conjugate was then added to the plate. After incubation at 37° C. for 30 min, the PY20-HRP solution was replaced by HRP substrate solution (TMBZ). For colorimetric determination of PTK activity, the sample's specific absorbance at 450 nm was calculated from the standard curve.

[3] = system: tyrosine kinase (TK) activity in K562 cells transfected with BCR-ABL1p210; test: Universal Tyrosine Kinase Assay on cell extract, K562 BCR-ABL1p210; type: cell-based, human; settings: relative to no-drug control, imatinib 1.2 μM, nilotinib 5 nM, dasatinib 5 nM, MK 0457 2 μM, homoharringtonine X μM
Procedure: as §2, §3

[4] = system: phosphorylation of CrkL, LYN, pSRC, pSTAT5, Aurora A and B in K562 cells; test: Phosphorylation of BCR-ABL substrates, K562 cells; type: cell-based, human
Procedure: (§4) The effect of a compound on the kinase activity of the BCR-ABL is assessed by monitoring tyrosine phosphorylation profile of the cellular proteins. […] Genetically modified cells comprising recombinant bcr-abl or variant so of bcr-abl including the splice variant are grown in presence of various amounts of a compound for treating CML patients. […] Amount of phosphorylated CrkL protein can be measured by using detectably labeled anti-phospho CrkL antibody. In one embodiment, the detectable label is phycoerythrin. The signal can be detected by Flow cytometer. Alternatively, the signal can be detected by Fluorescent Microtiter plate reader.
as §2, with “times.” for “times. Asterisk indicates p<0.05 relative to Control (empty vector).”

[5] = system: K562 cells transfected with pMIG/BCR-ABL1p210; test: MTT cell proliferation assay, K562 cells transfected with pMIG/BCR-ABL1p210; type: cell-based, human; settings: for IC50: pMIG/BCR-ABL1p210 0.1 μg DNA, K562 cells, drug 48 h, read-out: IC50 (median-effect dose, MTT); for Resistance to the drug caused by wild-type BCR-ABL1p210 expression: K562 cells transfected with BCR-ABL1p210
Procedure: as §1, with “K562 cells were cotransfected with an increasing amount (0 to 100 ng) of plasmid pMIG/35 INS BCR-ABL and 100 ng of either pMIG/BCR-ABL1p210 or empty plasmid (pMIG). […] The” for “The”

[6] = system: K562 cells transfected with pMIG/35 INS bcr-abl; test: MTT cell proliferation/viability assay, K562 cells transfected with pMIG/35 INS bcr-abl; type: cell-based, human; settings: for IC50: read-out: IC50 (median-effect dose, MTT)
Procedure: as §1, with “K562 cells were cotransfected with an increasing amount (0 to 100 ng) of plasmid pMIG/35 INS BCR-ABL and 100 ng of either pMIG/BCR-ABL1p210 or empty plasmid (pMIG). […] The” for “The”

[7] = system: tyrosine kinase (TK) activity in K562 cells transfected with BCR-ABL1 35INS; test: Universal Tyrosine Kinase Assay on cell extract, K562 BCR-ABL1 35INS; type: cell-based, human
Procedure: as §2, with “times.” for “times. Asterisk indicates p<0.05 relative to Control (empty vector).”
as §3

[8] = system: caspase-3 activation in K562 cells; test: Caspase-3 activation (apoptosis) assay in transfected K562 cells; type: cell-based, human; settings: for Effect of 35 INS BCR-ABL gene transfer on drug-induced caspase-3 activation: K562 cells transfected with 35 INS BCR-ABL
Procedure: To perform caspase assays, K562 cells were transiently transfected in 6-well dishes using the above procedure. […] Typically, 15-25 μg of lysates were analyzed for protease activity by continuously measuring the release of fluorogenic substrate Ac-DEVD-aminofluoromethylcoumarin product from EMD (San Diego, CA) at 37° C., as described (Capdeville et al., Nat. Rev. Drug Discov. 2002, 1:493).
Induction of apoptosis measured by caspase-3 activation (mean [SD]; n=3) in K562 cells transfected with the different plasmids as described above and shown in FIG. 18B.
(§5) Lysates were prepared at the times indicated and examined by caspase-3 assay (left) or by immunoblots using specific antibodies for BIM and actin (right) (see FIGS. 22A-22B).

CML patients = settings: cited from earlier work
[9] = system: BIM expression in K562 cells; test: BIM induction by immunoblot in K562 cells; type: cell-based, human; settings: 24 to 48 hours' incubation
Procedure: as §5

[10] = system: phosphorylation of CrkL and other substrates in K562 cells transfected with pMIG/35 INS bcr-abl; test: Phosphorylation of BCR-ABL substrates, K562 cells transfected with pMIG/35 INS bcr-abl; type: cell-based, human
Procedure: as §4
as §2, with “times.” for “times. Asterisk indicates p<0.05 relative to Control (empty vector).”

[11] = BCR-ABL1 35INS, relative to no-drug control, imatinib 1.2 μM, nilotinib 5 nM, dasatinib 5 nM, MK 0457 2 μM, homoharringtonine X μM

Compound | IC50 ([1]; Homo sapiens) | Relative tyrosine kinase activity [2] | Relative tyrosine kinase activity [3] | Effect on Aurora A and B [4] | IC50 ([5]; Homo sapiens) | Relative tyrosine kinase activity [7, 11] | Cell death in K562 cells [1] | Effect of 35 INS BCR-ABL gene transfer on drug-induced caspase-3 activation [8] | Resistance to the drug caused by wild-type BCR-ABL1p210 expression [5] | other results
Cc1nc(Nc2ncc(C(=O)Nc3c(C)cccc3Cl)s2)cc(N2CCN(CCO)CC2)n1 [Dasatinib, dasatinib] | 12 nM | 15.6% | 20.6% | no effect | 11 nM | – | – | – | – | –
COC(=O)C[C@](O)(CCCC(C)(C)O)C(=O)O[C@@H]1C(OC)=C[C@]23CCCN2CCc2cc4c(cc2[C@H]13)OCO4 [HHT, homoharringtonine] | 63 nM | 59.8% | 79.2% | – | 54 nM | 75.4% | – | – | – | IC50 ([6]; Homo sapiens, K562, 48 h, pMIG/35 INS bcr-abl 0.01 μg DNA, K562 cells, drug 48 h): 61 nM; IC50 ([6]; Homo sapiens, K562, 48 h, pMIG/35 INS bcr-abl 0.05 μg DNA, K562 cells, drug 48 h): 49 nM; IC50 ([6]; Homo sapiens, K562, 48 h, pMIG/35 INS bcr-abl 0.1 μg DNA, K562 cells, drug 48 h): 54 nM
Cc1ccc(NC(=O)c2ccc(CN3CCN(C)CC3)cc2)cc1Nc1nccc(-c2cccnc2)n1 [Imatinib, imatinib mesylate] | – | – | – | – | – | – | induced cell death | induced resistance; also recorded: increase was inhibited | did not induce resistance | Caspase-3 activation over time ([8]; CML K562 cells, continuous treatment): increased with time; Primary resistance rate (failure to achieve any hematologic response) (CML patients; accelerated-phase CML): 9%; Secondary resistance rate (hematologic recurrence) (CML patients; accelerated-phase CML): 32%; Primary resistance rate (failure to achieve any hematologic response) (CML patients; blast-phase CML): 51%; Secondary resistance rate (hematologic recurrence) (CML patients; blast-phase CML): 41%; Primary resistance rate (failure to achieve any hematologic response) (CML patients; chronic-phase CML): 3%; Secondary resistance rate (hematologic recurrence) (CML patients; chronic-phase CML): 22%; BIM expression / induction [9]: expressed at increased levels
Cc1cc(Nc2cc(N3CCN(C)CC3)nc(Sc3ccc(NC(=O)C4CC4)cc3)n2)n[nH]1 [MK-0457] | – | 87.3% | 96.7% | – | – | 100% | – | did not affect the rate of caspase-3 activation | did not induce resistance | IC50 [1]: 1810 nM; Resistance to the drug caused by 35 INS BCR-ABL expression (MTT) ([6]; K562 cells transfected with pMIG/35 INS bcr-abl): did not induce resistance; IC50 ([6]; pMIG/35 INS bcr-abl 0.01 μg DNA, K562 cells, drug 48 h): 2000 nM; IC50 ([6]; pMIG/35 INS bcr-abl 0.05 μg DNA, K562 cells, drug 48 h): 1980 nM; IC50 ([6]; pMIG/35 INS bcr-abl 0.1 μg DNA, K562 cells, drug 48 h): 1540 nM; Effect of 35 INS BCR-ABL expression on inhibition of kinases/phosphorylation by the drug [10]: no effect on inhibition; IC50 [5]: 1790 nM
Cc1cn(-c2cc(NC(=O)c3ccc(C)c(Nc4nccc(-c5cccnc5)n4)c3)cc(C(F)(F)F)c2)cn1 [Nilotinib, nilotinib] | 42 nM | 23.4% | 33.1% | no effect | 42 nM | – | induced cell death | induced resistance | did not induce resistance | Increase of IC50 with pMIG/35 INS bcr-abl vector [6]: 1.7 fold; IC50 ([6]; Homo sapiens, K562, 48 h): 52 nM; IC50 [6]: 54 nM and 71 nM; Relative tyrosine kinase activity [7]: 76.2%; Relative potency in induction of apoptosis (caspase-3 activation) ([8]; K562 cells): more potent than imatinib; Phosphorylation of CrkL, LYN, pSRC and pSTAT5 [4]: inhibited phosphorylation
